Test results from PMC7026418, “The kinase polypharmacology landscape of clinical PARP inhibitors” (Scientific Reports, 2020).
Like-named read-outs stand apart in the source and are kept apart here. Each block holds one molecule with its values, some of them ahead of it.

Columns and labels:
Test in all cases: biochemical
Parameters in all cases: DiscoveRx KINOMEscan active site-directed competition binding; percent of control kinase bound to immobilised ligand
[1] = biological target: T1, AMPK-alpha1 (Homo sapiens, UniProt Q13131)
T1 construct: gene PRKAA1
T1 sequence (Q13131 whole entry): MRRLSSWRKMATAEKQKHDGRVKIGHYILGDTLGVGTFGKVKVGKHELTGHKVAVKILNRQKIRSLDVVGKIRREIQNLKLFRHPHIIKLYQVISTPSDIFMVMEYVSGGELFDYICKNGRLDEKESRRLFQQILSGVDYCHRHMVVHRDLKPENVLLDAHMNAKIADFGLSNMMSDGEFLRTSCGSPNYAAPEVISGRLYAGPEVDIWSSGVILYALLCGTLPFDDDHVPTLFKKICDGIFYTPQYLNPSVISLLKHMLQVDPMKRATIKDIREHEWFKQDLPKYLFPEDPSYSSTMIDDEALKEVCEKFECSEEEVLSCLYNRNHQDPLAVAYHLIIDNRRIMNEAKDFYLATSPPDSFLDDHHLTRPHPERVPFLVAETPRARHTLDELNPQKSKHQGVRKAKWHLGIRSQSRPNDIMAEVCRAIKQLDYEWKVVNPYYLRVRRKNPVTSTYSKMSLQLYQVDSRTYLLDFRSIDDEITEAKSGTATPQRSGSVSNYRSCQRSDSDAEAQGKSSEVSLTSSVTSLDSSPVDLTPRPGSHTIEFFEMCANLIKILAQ

[2] = biological target: INSR (Homo sapiens, UniProt P06213)
INSR, sequence (P06213 whole entry): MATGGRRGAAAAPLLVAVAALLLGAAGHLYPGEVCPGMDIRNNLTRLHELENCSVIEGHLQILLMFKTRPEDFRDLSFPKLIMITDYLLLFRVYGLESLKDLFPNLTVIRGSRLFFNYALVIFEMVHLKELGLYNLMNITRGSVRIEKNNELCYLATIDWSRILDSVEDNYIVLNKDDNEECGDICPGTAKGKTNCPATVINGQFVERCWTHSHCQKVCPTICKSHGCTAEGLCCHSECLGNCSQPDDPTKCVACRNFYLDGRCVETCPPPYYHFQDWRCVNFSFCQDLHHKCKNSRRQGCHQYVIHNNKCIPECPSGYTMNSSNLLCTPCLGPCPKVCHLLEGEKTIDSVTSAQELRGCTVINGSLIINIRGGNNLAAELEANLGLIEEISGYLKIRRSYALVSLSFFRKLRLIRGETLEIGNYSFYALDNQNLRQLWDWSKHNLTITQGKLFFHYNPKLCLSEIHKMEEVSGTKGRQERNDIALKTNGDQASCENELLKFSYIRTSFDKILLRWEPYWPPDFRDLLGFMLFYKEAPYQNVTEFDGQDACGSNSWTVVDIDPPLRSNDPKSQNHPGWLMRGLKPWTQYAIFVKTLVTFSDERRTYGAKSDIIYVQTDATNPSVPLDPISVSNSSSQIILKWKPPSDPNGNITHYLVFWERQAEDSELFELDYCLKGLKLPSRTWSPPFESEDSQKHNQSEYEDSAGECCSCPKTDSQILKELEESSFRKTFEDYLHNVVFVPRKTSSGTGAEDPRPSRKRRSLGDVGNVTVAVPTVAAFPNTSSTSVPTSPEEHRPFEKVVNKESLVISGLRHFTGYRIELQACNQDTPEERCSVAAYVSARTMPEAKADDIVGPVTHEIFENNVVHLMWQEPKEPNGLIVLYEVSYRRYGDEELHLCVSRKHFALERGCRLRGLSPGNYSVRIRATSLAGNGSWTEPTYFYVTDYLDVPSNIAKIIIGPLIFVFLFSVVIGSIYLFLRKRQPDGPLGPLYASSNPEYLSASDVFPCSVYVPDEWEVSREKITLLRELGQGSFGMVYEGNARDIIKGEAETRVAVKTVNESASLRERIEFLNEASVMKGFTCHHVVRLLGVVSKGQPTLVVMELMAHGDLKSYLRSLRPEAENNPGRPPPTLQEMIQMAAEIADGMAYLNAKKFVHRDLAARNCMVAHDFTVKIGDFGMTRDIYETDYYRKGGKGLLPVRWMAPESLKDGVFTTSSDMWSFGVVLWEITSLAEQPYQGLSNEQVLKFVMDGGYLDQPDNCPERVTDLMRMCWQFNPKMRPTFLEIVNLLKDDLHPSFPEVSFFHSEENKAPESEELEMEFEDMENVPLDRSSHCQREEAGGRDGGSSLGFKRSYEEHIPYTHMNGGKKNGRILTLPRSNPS

[3] = biological target: INSRR (Homo sapiens, UniProt P14616)
INSRR, sequence (P14616 whole entry): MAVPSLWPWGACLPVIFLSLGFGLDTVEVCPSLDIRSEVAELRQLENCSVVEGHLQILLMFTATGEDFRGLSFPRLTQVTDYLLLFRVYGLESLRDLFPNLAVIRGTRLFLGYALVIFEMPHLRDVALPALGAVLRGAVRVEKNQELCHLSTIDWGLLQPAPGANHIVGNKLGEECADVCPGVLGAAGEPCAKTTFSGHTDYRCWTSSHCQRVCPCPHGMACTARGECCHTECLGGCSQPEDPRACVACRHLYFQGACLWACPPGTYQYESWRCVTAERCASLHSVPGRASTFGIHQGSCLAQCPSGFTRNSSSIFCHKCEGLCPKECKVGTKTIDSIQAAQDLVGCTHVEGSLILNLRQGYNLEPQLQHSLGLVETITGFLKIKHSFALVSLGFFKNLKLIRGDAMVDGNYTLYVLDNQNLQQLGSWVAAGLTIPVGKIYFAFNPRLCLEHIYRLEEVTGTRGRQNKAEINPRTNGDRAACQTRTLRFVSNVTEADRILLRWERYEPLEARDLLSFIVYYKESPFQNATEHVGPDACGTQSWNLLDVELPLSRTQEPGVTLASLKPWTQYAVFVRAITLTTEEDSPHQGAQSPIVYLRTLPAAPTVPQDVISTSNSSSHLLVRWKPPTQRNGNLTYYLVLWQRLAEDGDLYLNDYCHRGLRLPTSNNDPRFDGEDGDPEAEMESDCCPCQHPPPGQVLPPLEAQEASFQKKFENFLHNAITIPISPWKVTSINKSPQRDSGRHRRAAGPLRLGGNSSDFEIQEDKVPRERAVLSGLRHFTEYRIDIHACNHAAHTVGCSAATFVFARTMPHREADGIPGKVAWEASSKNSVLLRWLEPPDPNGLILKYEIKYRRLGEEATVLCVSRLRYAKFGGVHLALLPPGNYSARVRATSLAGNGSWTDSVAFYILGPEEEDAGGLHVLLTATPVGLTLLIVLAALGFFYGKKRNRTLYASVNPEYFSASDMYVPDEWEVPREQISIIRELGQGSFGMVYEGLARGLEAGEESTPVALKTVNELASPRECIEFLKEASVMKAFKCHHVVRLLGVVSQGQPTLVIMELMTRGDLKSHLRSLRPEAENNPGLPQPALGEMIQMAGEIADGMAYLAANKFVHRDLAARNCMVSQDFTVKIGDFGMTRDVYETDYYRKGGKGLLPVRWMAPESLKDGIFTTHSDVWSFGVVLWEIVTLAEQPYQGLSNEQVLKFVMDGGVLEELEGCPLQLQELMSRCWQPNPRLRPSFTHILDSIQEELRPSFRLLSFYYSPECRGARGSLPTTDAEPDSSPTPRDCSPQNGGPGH

[4] = biological target: T2, LATS1 (Homo sapiens, UniProt O95835)
T2 sequence (O95835 1-1130): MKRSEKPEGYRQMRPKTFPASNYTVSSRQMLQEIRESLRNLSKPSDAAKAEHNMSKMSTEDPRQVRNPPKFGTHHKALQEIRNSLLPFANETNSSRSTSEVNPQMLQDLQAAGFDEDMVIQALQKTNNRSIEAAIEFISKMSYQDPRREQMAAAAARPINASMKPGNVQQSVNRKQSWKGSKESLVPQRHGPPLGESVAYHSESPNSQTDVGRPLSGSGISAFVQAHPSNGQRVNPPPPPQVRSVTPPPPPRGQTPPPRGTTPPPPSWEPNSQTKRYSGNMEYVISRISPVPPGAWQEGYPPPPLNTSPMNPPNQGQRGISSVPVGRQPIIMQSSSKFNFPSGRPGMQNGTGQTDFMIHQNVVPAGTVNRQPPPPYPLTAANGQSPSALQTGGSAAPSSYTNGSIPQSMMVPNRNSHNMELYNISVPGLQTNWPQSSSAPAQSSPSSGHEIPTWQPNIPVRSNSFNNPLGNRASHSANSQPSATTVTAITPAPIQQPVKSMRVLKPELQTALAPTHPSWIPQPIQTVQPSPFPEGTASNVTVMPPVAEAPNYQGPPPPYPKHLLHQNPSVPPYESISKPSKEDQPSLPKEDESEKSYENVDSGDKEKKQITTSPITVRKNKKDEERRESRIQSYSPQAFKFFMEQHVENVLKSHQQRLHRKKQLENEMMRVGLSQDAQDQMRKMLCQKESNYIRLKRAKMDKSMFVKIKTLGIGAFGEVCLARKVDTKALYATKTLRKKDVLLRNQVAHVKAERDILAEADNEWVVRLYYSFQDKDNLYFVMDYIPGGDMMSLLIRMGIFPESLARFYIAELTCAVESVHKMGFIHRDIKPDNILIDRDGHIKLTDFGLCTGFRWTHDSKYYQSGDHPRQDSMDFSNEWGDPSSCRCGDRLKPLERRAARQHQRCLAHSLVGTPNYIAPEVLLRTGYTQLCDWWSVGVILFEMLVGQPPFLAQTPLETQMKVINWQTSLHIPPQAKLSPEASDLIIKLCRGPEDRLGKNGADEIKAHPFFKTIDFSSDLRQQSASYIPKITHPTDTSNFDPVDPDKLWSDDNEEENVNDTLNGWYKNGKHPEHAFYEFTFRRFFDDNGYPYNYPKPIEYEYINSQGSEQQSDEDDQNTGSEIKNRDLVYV

[5] = biological target: T3, RSK3(Kin.Dom.2-C-terminal) (Homo sapiens, UniProt Q15349)
T3 construct: gene RPS6KA2; Kin.Dom.2-C-terminal
T3 sequence (Q15349 whole entry): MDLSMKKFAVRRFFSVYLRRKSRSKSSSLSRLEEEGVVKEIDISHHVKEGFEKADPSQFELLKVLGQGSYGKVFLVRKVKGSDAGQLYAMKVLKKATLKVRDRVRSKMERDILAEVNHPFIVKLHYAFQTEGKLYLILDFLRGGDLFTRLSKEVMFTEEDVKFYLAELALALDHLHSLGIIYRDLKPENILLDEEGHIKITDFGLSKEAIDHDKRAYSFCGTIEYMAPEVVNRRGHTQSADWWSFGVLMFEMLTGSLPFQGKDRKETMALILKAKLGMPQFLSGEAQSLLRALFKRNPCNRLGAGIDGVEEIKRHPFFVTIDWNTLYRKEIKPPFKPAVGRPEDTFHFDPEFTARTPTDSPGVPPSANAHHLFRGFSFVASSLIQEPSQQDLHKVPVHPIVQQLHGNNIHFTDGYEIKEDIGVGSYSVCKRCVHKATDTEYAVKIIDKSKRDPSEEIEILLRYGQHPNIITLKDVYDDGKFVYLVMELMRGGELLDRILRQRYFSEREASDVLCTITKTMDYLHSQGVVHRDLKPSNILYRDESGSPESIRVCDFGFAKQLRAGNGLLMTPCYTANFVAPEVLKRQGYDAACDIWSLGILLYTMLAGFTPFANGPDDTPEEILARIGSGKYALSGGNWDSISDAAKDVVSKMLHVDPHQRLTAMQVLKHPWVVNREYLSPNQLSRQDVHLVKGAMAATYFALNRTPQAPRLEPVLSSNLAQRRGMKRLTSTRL

[6] = biological target: T4, TAOK2 (Homo sapiens, UniProt Q9UL54)
T4 sequence (Q9UL54 1-1235): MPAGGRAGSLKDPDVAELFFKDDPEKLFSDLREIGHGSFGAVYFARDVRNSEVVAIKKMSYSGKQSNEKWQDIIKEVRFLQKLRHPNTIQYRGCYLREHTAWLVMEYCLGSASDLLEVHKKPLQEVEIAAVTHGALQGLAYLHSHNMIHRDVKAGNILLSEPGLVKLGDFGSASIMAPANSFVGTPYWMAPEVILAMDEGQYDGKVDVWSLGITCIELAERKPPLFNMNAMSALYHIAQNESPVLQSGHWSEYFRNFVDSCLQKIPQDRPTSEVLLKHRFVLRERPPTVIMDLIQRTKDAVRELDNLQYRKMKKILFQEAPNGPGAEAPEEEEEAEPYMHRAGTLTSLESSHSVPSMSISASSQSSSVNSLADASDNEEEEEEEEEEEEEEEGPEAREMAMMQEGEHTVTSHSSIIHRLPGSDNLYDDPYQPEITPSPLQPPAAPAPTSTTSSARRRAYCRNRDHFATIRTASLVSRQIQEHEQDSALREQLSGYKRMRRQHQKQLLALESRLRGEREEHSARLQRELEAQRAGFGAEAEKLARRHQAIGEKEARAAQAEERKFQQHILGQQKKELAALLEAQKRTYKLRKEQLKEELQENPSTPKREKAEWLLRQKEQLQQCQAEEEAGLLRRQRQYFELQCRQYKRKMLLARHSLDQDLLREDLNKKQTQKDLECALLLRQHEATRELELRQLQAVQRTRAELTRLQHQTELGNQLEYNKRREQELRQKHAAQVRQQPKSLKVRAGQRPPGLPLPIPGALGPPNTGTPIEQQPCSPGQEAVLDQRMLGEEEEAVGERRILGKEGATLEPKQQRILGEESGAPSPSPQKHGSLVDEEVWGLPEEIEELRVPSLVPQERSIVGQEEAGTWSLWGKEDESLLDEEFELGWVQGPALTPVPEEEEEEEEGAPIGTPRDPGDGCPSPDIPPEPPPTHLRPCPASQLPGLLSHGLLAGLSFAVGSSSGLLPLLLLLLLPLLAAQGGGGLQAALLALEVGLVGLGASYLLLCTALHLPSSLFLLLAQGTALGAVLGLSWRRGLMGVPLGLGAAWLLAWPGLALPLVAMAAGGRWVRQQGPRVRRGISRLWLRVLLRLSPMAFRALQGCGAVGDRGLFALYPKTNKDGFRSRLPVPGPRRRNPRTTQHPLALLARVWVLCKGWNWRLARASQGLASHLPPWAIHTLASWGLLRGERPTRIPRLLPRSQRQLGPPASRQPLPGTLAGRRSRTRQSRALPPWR

[7] = read-out: Niraparib (MK-4827) / %Ctrl @ 10000nM
[8] = read-out: Olaparib / %Ctrl @ 10000nM
[9] = read-out: Rucaparib / %Ctrl @ 10000nM, binding competition, % of control
[10] = read-out: Talazoparib (BMN 673) / %Ctrl @ 10000nM

SMILES: NC(=O)c1cccc2cn(-c3ccc([C@@H]4CCCNC4)cc3)nc12 [Niraparib]
percent of control binding at 10 µM [1, 7]: 77%
percent of control binding at 10 µM [2, 7]: 86%
percent of control binding at 10 µM [3, 7]: 92%
percent of control binding at 10 µM [4, 7]: 36%
percent of control binding at 10 µM [5, 7]: 93%
percent of control binding at 10 µM [6, 7]: 100%

percent of control binding at 10 µM [1, 8]: 98%
percent of control binding at 10 µM [2, 8]: 85%
percent of control binding at 10 µM [3, 8]: 100%
percent of control binding at 10 µM [4, 8]: 78%
percent of control binding at 10 µM [5, 8]: 70%
percent of control binding at 10 µM [6, 8]: 93%
SMILES: O=C(c1cc(Cc2n[nH]c(=O)c3ccccc23)ccc1F)N1CCN(C(=O)C2CC2)CC1 [Olaparib]

percent of control binding at 10 µM [1, 9]: 92%
percent of control binding at 10 µM [2, 9]: 86%
percent of control binding at 10 µM [3, 9]: 95%
percent of control binding at 10 µM [4, 9]: 75%
percent of control binding at 10 µM [5, 9]: 67%
percent of control binding at 10 µM [6, 9]: 71%
SMILES: CNCc1ccc(-c2[nH]c3cc(F)cc4c3c2CCNC4=O)cc1 [Rucaparib]

percent of control binding at 10 µM [1, 10]: 100%
percent of control binding at 10 µM [2, 10]: 62%
percent of control binding at 10 µM [3, 10]: 100%
percent of control binding at 10 µM [4, 10]: 92%
percent of control binding at 10 µM [5, 10]: 100%
percent of control binding at 10 µM [6, 10]: 100%
SMILES: Cn1ncnc1[C@H]1c2n[nH]c(=O)c3cc(F)cc(c23)N[C@@H]1c1ccc(F)cc1 [Talazoparib]
